Among the data in patent US7709471B2, “Compounds” (AstraZeneca AB, priority 2006, dated 2010) are IC50 values, retold here.

Experiment [1] relates to human colon tumour cell line HT29. Kind of experiment: Cellular Assay (phosphohistone H3 Ser10 mitotic marker, HT29). Type of experiment: cell-based. As to conditions: HT-29, 24 h, HT29 cells, read-out: IC50 (cellular assay, phosphohistone H3).
Description: Chromosome condensation in mitosis is accompanied by phosphorylation of histone H3 on serine 10.
After 24 hours, cells were fixed in 3.7% (v/v) formaldehyde then permeabilised and blocked for 10 minutes in 100 μl 0.5% (v/v) Triton X-100, 1% (w/v) bovine serum albumin (BSA) in phosphate buffered saline (PBS). […] The raw assay data were analysed by non-linear regression analysis and used to determine an IC50 value for each compound.
The next experiment has as its target recombinant Plk1 (Homo sapiens, UniProt P53350). Nature of the experiment: In Vitro Plk1 Enzyme Assay (SPA, GST-Cdc25C phosphorylation). Type of experiment: biochemical. Conditions: ATP 64 nM, 90 minutes, read-out: IC50 (Plk1 enzyme inhibition).

A word on the IC50: it is the concentration that gives 50% inhibition.

Structures are written as SMILES.

Chain of recombinant Plk1 (P53350 whole entry): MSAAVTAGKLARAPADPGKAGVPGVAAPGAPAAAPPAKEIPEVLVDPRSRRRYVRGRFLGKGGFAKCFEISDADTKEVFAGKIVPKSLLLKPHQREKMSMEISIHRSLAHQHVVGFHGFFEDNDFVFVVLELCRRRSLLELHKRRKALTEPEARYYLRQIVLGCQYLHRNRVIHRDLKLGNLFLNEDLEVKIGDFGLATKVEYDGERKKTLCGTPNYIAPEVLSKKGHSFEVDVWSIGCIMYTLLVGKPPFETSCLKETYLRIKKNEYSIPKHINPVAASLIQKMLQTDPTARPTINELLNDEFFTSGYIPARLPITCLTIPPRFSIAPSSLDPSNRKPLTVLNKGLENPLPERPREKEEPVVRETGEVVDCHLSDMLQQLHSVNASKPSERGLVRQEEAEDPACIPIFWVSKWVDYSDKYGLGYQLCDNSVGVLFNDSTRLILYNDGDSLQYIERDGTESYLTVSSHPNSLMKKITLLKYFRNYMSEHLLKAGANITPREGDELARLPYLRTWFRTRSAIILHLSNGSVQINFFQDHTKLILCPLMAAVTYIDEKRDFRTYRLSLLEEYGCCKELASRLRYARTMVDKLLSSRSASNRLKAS

For `COc1cc(C(=O)Nc2ccncc2)ccc1Nc1ncc2c(n1)N(C1CCCC1)CCC(=O)N2C` [Example 67, 4-[(6-cyclopentyl-2-methyl-3-oxo-2,6,8,10-tetrazabicyclo[5.4.0]undeca-8,10,12-trien-9-yl)amino]-3-methoxy-N-pyridin-4-yl-benzamide], the IC50 was less than 0.3 µM in experiment [1] and less than 1 µM on recombinant Plk1.
In the same order, the values of `COCCNS(=O)(=O)c1ccc(Nc2ncc3c(n2)N(C2CCCC2)CCC(=O)N3C)cc1` [Example 125, 4-[(6-cyclopentyl-2-methyl-3-oxo-2,6,8,10-tetrazabicyclo[5.4.0]undeca-8,10,12-trien-9-yl)amino]-N-(2-methoxyethyl)benzenesulfonamide] are less than 30 µM and less than 100 µM.
In the same order, the values of `COc1cc(C(=O)NC2CCNC2)ccc1Nc1ncc2c(n1)N(C1CCCC1)CCC(=O)N2C` (centres unmarked) [Example 45, 4-[(6-cyclopentyl-2-methyl-3-oxo-2,6,8,10-tetrazabicyclo[5.4.0]undeca-8,10,12-trien-9-yl)amino]-3-methoxy-N-pyrrolidin-3-yl-benzamide] are less than 0.3 µM and less than 0.3 µM.
In the same order, the values of `CN(C)CCNC(=O)c1ccc(Nc2ncc3c(n2)N(C2CCCC2)CCC(=O)N3C)c(Cl)c1` [Example 315, 3-chloro-4-[(2-cyclopentyl-6-methyl-5-oxo-2,6,9,11-tetrazabicyclo[5.4.0]undeca-7,9,11-trien-10-yl)amino]-N-(2-dimethylaminoethyl)benzamide] are less than 0.3 µM and less than 0.3 µM.
With `COc1cc(C(=O)Nc2cccnc2)ccc1Nc1ncc2c(n1)N(C1CCCC1)CCC(=O)N2C` [Example 74, 4-[(6-cyclopentyl-2-methyl-3-oxo-2,6,8,10-tetrazabicyclo[5.4.0]undeca-8,10,12-trien-9-yl)amino]-3-methoxy-N-pyridin-3-yl-benzamide], the figures for the IC50 (in experiment [1]; on recombinant Plk1) were less than 0.3 µM and less than 100 µM, respectively.
Consider `CN1C(=O)CCN(C2CCCC2)c2nc(Nc3cccc(S(N)(=O)=O)c3)ncc21` [Example 170, 3-[(6-cyclopentyl-2-methyl-3-oxo-2,6,8,10-tetrazabicyclo[5.4.0]undeca-8,10,12-trien-9-yl)amino]benzenesulfonamide], for which the concentration for half-maximal inhibition (IC50) in experiment [1] is less than 30 µM; on recombinant Plk1 it was less than 0.3 µM.
The corresponding values for `COc1ccc(NC(=O)c2ccc(Nc3ncc4c(n3)N(C3CCCC3)CCC(=O)N4C)c(OC)c2)cc1` [Example 77, 4-[(6-cyclopentyl-2-methyl-3-oxo-2,6,8,10-tetrazabicyclo[5.4.0]undeca-8,10,12-trien-9-yl)amino]-3-methoxy-N-(4-methoxyphenyl)benzamide] are less than 1 µM and less than 100 µM.
With `COc1cc(C(=O)NCC2CCCN(C)C2)ccc1Nc1ncc2c(n1)N(C1CCCC1)CCC(=O)N2C` (centres unmarked) [Example 84, 4-[(6-cyclopentyl-2-methyl-3-oxo-2,6,8,10-tetrazabicyclo[5.4.0]undeca-8,10,12-trien-9-yl)amino]-3-methoxy-N-[(1-methyl-3-piperidyl)methyl]benzamide], the IC50 (in experiment [1]; at recombinant Plk1) was less than 0.3 µM each time.
On to `CCCN1CCC(NC(=O)c2ccc(Nc3ncc4c(n3)N(C3CCCC3)CCC(=O)N4C)c(OC)c2)CC1` [Example 314, 4-[(2-cyclopentyl-6-methyl-5-oxo-2,6,9,11-tetrazabicyclo[5.4.0]undeca-7,9,11-trien-10-yl)amino]-3-methoxy-N-(1-propyl-4-piperidyl)benzamide], for which the IC50 (in experiment [1]; at recombinant Plk1) was less than 0.3 µM throughout.
Turning to `COc1cc(C(=O)NC2CCN(C)CC2)ccc1Nc1ncc2c(n1)N(C1CCCC1=O)CCC(=O)N2C` (centres unmarked) [Example 410, 3-methoxy-4-[[6-methyl-5-oxo-2-(2-oxocyclopentyl)-2,6,9,11-tetrazabicyclo[5.4.0]undeca-7,9,11-trien-10-yl]amino]-N-(1-methyl-4-piperidyl)benzamide], the figures for the half-maximal inhibitory concentration (IC50) (in experiment [1]; on recombinant Plk1) were less than 30 µM and less than 1 µM, respectively.
The corresponding values for `CN1C(=O)CCN(C2CCCC2)c2nc(Nc3cc(F)c(C(=O)N[C@@H]4CCNC4)cc3Cl)ncc21` [Example 321, 5-chloro-4-[(2-cyclopentyl-6-methyl-5-oxo-2,6,9,11-tetrazabicyclo[5.4.0]undeca-7,9,11-trien-10-yl)amino]-2-fluoro-N-[(3R)-pyrrolidin-3-yl]benzamide] are less than 0.3 µM and less than 0.3 µM.
The corresponding values for `CCN(CC)CCCCNC(=O)c1ccc(Nc2ncc3c(n2)N(C2CCCC2)CCC(=O)N3C)c(OC)c1` [Example 30, 4-[(6-cyclopentyl-2-methyl-3-oxo-2,6,8,10-tetrazabicyclo[5.4.0]undeca-8,10,12-trien-9-yl)amino]-N-(4-diethylaminobutyl)-3-methoxy-benzamide] are less than 0.3 µM and less than 0.3 µM.
On to `COc1ccc(CCNC(C)=O)cc1Nc1ncc2c(n1)N(C1CCCC1)CCC(=O)N2C` [Example 138, N-[2-[3-[(6-cyclopentyl-2-methyl-3-oxo-2,6,8,10-tetrazabicyclo[5.4.0]undeca-8,10,12-trien-9-yl)amino]-4-methoxy-phenyl]ethyl]acetamide], for which the results for the half-maximal inhibitory concentration (IC50) (in experiment [1]; on recombinant Plk1) were less than 30 µM and less than 1 µM, respectively.
For the compound `CN1CCC(NC(=O)c2cc(Cl)c(Nc3ncc4c(n3)N(C3CCCC3)CCC(=O)N4C)cc2F)CC1` [Example 322, 5-chloro-4-[(2-cyclopentyl-6-methyl-5-oxo-2,6,9,11-tetrazabicyclo[5.4.0]undeca-7,9,11-trien-10-yl)amino]-2-fluoro-N-(1-methyl-4-piperidyl)benzamide], the IC50 (in experiment [1]; at recombinant Plk1) was less than 0.3 µM in each case.
Regarding `COc1cc(C(=O)NC2CC3CCC(C2)N3C)ccc1Nc1ncc2c(n1)N(C1CCCC1)CCC(=O)N2C` [Example 71, 4-[(6-cyclopentyl-2-methyl-3-oxo-2,6,8,10-tetrazabicyclo[5.4.0]undeca-8,10,12-trien-9-yl)amino]-3-methoxy-N-[(1S,5R)-8-methyl-8-azabicyclo[3.2.1]oct-3-yl]benzamide], the half-maximal inhibitory concentration (IC50) (in experiment [1]; on recombinant Plk1) was less than 0.3 µM in each case.
With `COc1cc(C(=O)NC2CCN(C)CC2)ccc1Nc1ncc2c(n1)N(CC1CC1)CCC(=O)N2C` [Example 213, 4-[[6-(cyclopropylmethyl)-2-methyl-3-oxo-2,6,8,10-tetrazabicyclo[5.4.0]undeca-8,10,12-trien-9-yl]amino]-3-methoxy-N-(1-methyl-4-piperidyl)benzamide], the IC50 (in experiment [1]; on recombinant Plk1) was less than 0.3 µM each time.
For the compound `Cc1ccc(CO)cc1Nc1ncc2c(n1)N(C1CCCC1)CCC(=O)N2C` [Example 178, 6-cyclopentyl-9-[[5-(hydroxymethyl)-2-methyl-phenyl]amino]-2-methyl-2,6,8,10-tetrazabicyclo[5.4.0]undeca-8,10,12-trien-3-one], the IC50 in experiment [1] is less than 30 µM; at recombinant Plk1 it was less than 1 µM.
The corresponding values for `COc1cc(C(=O)N[C@H]2CCN(C(=O)OC(C)(C)C)C2)ccc1Nc1ncc2c(n1)N(C1CCCC1)CCC(=O)N2C` [Example 53, tert-butyl (3S)-3-[[4-[(6-cyclopentyl-2-methyl-3-oxo-2,6,8,10-tetrazabicyclo[5.4.0]undeca-8,10,12-trien-9-yl)amino]-3-methoxy-benzoyl]amino]pyrrolidine-1-carboxylate] are less than 1 µM and less than 100 µM.
For the compound `CCN1CCCC1CNC(=O)c1ccc(Nc2ncc3c(n2)N(C2CCCC2)CCC(=O)N3C)c(OC)c1` (centres unmarked) [Example 15, 4-[(6-cyclopentyl-2-methyl-3-oxo-2,6,8,10-tetrazabicyclo[5.4.0]undeca-8,10,12-trien-9-yl)amino]-N-[(1-ethylpyrrolidin-2-yl)methyl]-3-methoxy-benzamide], the IC50 (in experiment [1]; on recombinant Plk1) was less than 0.3 µM each time.
On to `COc1cc(C(=O)NCC(C)(C)N2CCCCC2)ccc1Nc1ncc2c(n1)N(C1CCCC1)CCC(=O)N2C` [Example 75, 4-[(6-cyclopentyl-2-methyl-3-oxo-2,6,8,10-tetrazabicyclo[5.4.0]undeca-8,10,12-trien-9-yl)amino]-3-methoxy-N-[2-methyl-2-(1-piperidyl)propyl]benzamide], for which the concentration for half-maximal inhibition (IC50) (in experiment [1]; at recombinant Plk1) was less than 0.3 µM each time.
On to `COc1cc(C(=O)NC(C)C)ccc1Nc1ncc2c(n1)N(C1CCCC1)CCC(=O)N2C` [Example 95, 4-[(6-cyclopentyl-2-methyl-3-oxo-2,6,8,10-tetrazabicyclo[5.4.0]undeca-8,10,12-trien-9-yl)amino]-3-methoxy-N-propan-2-yl-benzamide], for which the figures for the IC50 (in experiment [1]; at recombinant Plk1) were less than 0.3 µM and less than 1 µM, respectively.
The corresponding values for `CCN1CCC(NC(=O)c2ccc(Nc3ncc4c(n3)N(C3CCCC3)CCC(=O)N4C)c(Cl)c2)CC1` [Example 316, 3-chloro-4-[(2-cyclopentyl-6-methyl-5-oxo-2,6,9,11-tetrazabicyclo[5.4.0]undeca-7,9,11-trien-10-yl)amino]-N-(1-ethyl-4-piperidyl)benzamide] are less than 0.3 µM and less than 0.3 µM.
The corresponding values for `COc1cc(C(=O)NCc2cccnc2)ccc1Nc1ncc2c(n1)N(C1CCCC1)CCC(=O)N2C` [Example 76, 4-[(6-cyclopentyl-2-methyl-3-oxo-2,6,8,10-tetrazabicyclo[5.4.0]undeca-8,10,12-trien-9-yl)amino]-3-methoxy-N-(pyridin-3-ylmethyl)benzamide] are less than 0.3 µM and less than 1 µM.
In the same order, the values of `COc1cc(C(=O)NC[C@@H]2CCNC2)ccc1Nc1ncc2c(n1)N(C1CCCC1)CCC(=O)N2C` [Example 47, 4-[(6-cyclopentyl-2-methyl-3-oxo-2,6,8,10-tetrazabicyclo[5.4.0]undeca-8,10,12-trien-9-yl)amino]-3-methoxy-N-[[(3R)-pyrrolidin-3-yl]methyl]benzamide] are less than 1 µM and less than 0.3 µM.
For the compound `COc1cc(C(=O)NCC2CC2)ccc1Nc1ncc2c(n1)N(C1CCCC1)CCC(=O)N2C` [Example 94, 4-[(6-cyclopentyl-2-methyl-3-oxo-2,6,8,10-tetrazabicyclo[5.4.0]undeca-8,10,12-trien-9-yl)amino]-N-(cyclopropylmethyl)-3-methoxy-benzamide], the values for the IC50 (in experiment [1]; at recombinant Plk1) were less than 0.3 µM and less than 100 µM, respectively.
